{"source": "patent US5830910A", "about": "(priority 1995, dated 1998)", "key": {"[1]": {"test_system": "cultured hippocampal neurons", "experiment": "calcium ionophore A23187 neurotoxicity", "format": "cell-based, rat", "excerpt": "(§1) Dissociated embryonic rat hippocampal cell cultures were established and maintained. All procedures conformed with the NIH Guide for the Care and Use of Laboratory Animals and were approved by the University of Kentucky Animal Care and Use Committee. Cultures were maintained on a polyethyleneimine-coated substrate in plastic 35-mm dishes or 96 wall plates (for cell survival studies) or glass-bottom 35-mm dishes (for [Ca^2+ ]i imaging studies). The cell density was ^~ 70-100 cells/mm^2. Cells were maintained in Eagle's minimum essential medium supplemented 10% with fetal bovine serum and containing 20 mM sodium pyruvate. […] Aβ25-35 (Bachem, lot ZJ744) and Aβ1-40 (Bachem, lot ZK600) were stored in the lyophilized form, and stocks were prepared immediately before use by dissolving the peptide at a concentration of 1 mM in sterile distilled water. […] Glutamate and colchicine (Sigma) were prepared as 200-500x stocks in saline. Cytochalasins D and E (Sigma) and calcium ionophore 4-bromo-A23187 (Calbiochem) were prepared as 500x stocks in dimethyl sulfoxide. Vitamin E (α-tocopherol; Sigma) was prepared as a 500x stock in ethanol. Nordihydroguaiaretic acid and FeSo4 were prepared as 500x stocks in sterile water.\n(§2) Neuronal survival was quantified by counting viable neurons in the same microscope fields (10x objective) immediately before experimental treatment and at time points after treatment. In addition, cells were grown in 96-well plates and Alamar blue fluorescence (Alamar Laboratories)was quantified by using a fluorescence plate reader. Alamar Blue is a non-fluorescent substrate that, after reduction by cell metabolites, becomes fluorescent. […] Viability of the remaining neurons was assessed by morphological criteria. […] Survival values were expressed as percentages of the initial number of neurons present before experimental treatment. […]\nFIG. 7. Cultures were pretreated for 1 h with 0.2% dimethylsulfoxide (control) or 100 nM cytochalasin D. Calcium ionophore A23187 was then added at the indicated concentrations and neuronal survival was assessed 8 h later. […]"}, "[2]": {"test_system": "cultured hippocampal neurons", "experiment": "iron (FeSO4) neurotoxicity", "format": "cell-based, rat", "settings": "50 μg/ml vitamin E or 2 μM NDGA, 1 h preincubation", "excerpt": "as §1\n(§3) Neuronal survival was quantified by counting viable neurons in the same microscope fields (10x objective) immediately before experimental treatment and at time points after treatment. In addition, cells were grown in 96-well plates and Alamar blue fluorescence (Alamar Laboratories)was quantified by using a fluorescence plate reader. Alamar Blue is a non-fluorescent substrate that, after reduction by cell metabolites, becomes fluorescent. Usually neurons that died in the time intervals (20-48 h) between examination points were absent. Viability of the remaining neurons was assessed by morphological criteria. Neutrons with intact neurites of uniform diameter and a soma with a smooth, round appearance were considered viable, whereas neurons with fragmented neurites and a vacuolated or swollen soma were considered nonviable. Survival values were expressed as percentages of the initial number of neurons present before experimental treatment. Statistical comparisons were made using ANOVA and Scheffe post-hoc tests for pairwise comparisons.\nFIG. 8. Cultures were preincubated 1 h in the presence of 0.5% dimethylsulfoxide (control), 100 nM cytochalasin D, 50 μg/ml vitamin E (VitE), or 2 μM nordihydroguairetic acid (NDGA). Cultures were then exposed for 6 h to the indicated concentrations of FeSO4 and neuronal survival was quantified. Values represent the means and SEM of determinations made in four separate cultures. *P<0.001 compared to value for cultures exposed to 100 μM FeSO4 alone."}, "[3]": {"test_system": "cultured hippocampal neurons", "experiment": "hydrogen peroxide neurotoxicity", "format": "cell-based, rat", "excerpt": "as §1\nas §3, with “Usually neurons that died in the time intervals (20-48 h) between examination points were absent.” left out\nFIG. 15. […] Cultures were pretreated for 1 h with vehicle (Control), 100 nM cytochalasin D (CyD), or 50 μg/ml vitamin E (vE) and then exposed for 20 h to the indicated concentrations of hydrogen peroxide. Data are mean and SEM values of determinations made in four separate cultures."}, "[4]": {"test_system": "cultured hippocampal neurons", "format": "cell-based, rat", "settings": "for neurotoxicity, preliminary characterization: 48-h period, added in soluble form", "excerpt": "as §1, §3\nFIG. 12. (A) Cultures were pretreated for 1 h with vehicle 0.2% dimethyl sulfoxide (Control) or 100 nM cytochalasin D (CyD) and were exposed to the indicated concentrations of Aβ25-35 for 48 h. Data are mean and SEM values of determinations made in four separate cultures.\n(B) Cultures were pretreated for 1 h with the indicated concentrations of cytochalasin D and then exposed to 50 μM Aβ25-35; parallel cultures were exposed to cytochalasin D alone (Control) . Data are mean and SEM values of determinations made in four separate cultures.\nFIG. 14. Cultures were exposed to 100 nM colchicine; 50 μM Aβ; 100 nM colchicine plus 50 μM Aβ; 100 nM cytochalasin E (CyE) plus Aβ (colchicine and cytochalasin E were added 1 h before Aβ); neuronal survival was assessed 48 h later. Data are mean and SEM values of determinations made in four separate cultures. *p<0.01, compared with values for control or colchicine alone. **p<0.01, compared with value for cultures exposed to Aβ alone."}, "[5]": {"experiment": "aggregation of peptides in culture medium", "format": "physicochemical", "excerpt": "as §1"}, "[6]": {"test_system": "cultured hippocampal neurons", "experiment": "cells", "format": "cell-based, rat", "excerpt": "as §1, §3\nValues represent the means and SEM of 4 separate cultures (cell counts) or 4 culture wells (Alamar blue assay). ^a p<0.05 compared to control value. ^b p<0.001 compound to control value. ^c p<0.01 compared to value for glutamate-treated cultures. ^d p<0.005 compared to value for glutamate-treated cultures. ^e p<0.001 compared to value for Aβ-treated cultures. ^f p<0.001 compared to value for cultures treated with 20 μM glutamate. ^g p<0.001 compared to cultures treated with 50 μM Aβ+20 μM glutamate. n.d. not determined."}, "[7]": {"test_system": "neuronal [Ca^2+]i in cultured hippocampal neurons", "experiment": "measurement of [Ca^2+]i, fura-2 imaging", "format": "cell-based, rat", "settings": "50 μM Aβ", "excerpt": "as §1\nFluorescence ratio imaging of the Ca^2+ indicator dye fura-2 was used to quantify [Ca^2+ ]i in neuronal somata. Cells were incubated for 30-40 min in the presence of 2 μM acetoxymethyl ester form of the [Ca^2+ ]i indicator dye fura-2 and were then washed twice (2 ml/wash) with fresh medium and allowed to incubate at least 40 min before imaging. Immediately before imaging, the normal culture medium was replaced with Hanks' balanced saline solution (GIBCO) containing 10 mM HEPES buffer and 10 mM of glucose. Cells were imaged using a Zeiss Attofluor system with a oil objective or Quantex system with a 40x oil objective. The ratio of the fluorescence emission using two different excitation wavelengths (334 and 380 nm) was used to determine [Ca^2+ ]i. The system was calibrated using solutions containing either no Ca^2+ or a saturating level of Ca^2+ (1 mM) according to the following formula: [Ca^2+ ]i =KD [(R-Rmin) / (Rmax -R)] (F0 /FS). Values represent the average [Ca^2+ ]i in the neuronal cell body. Experimental treatments were added to the bathing medium by dilution from 100-500x stocks.\n(A) Cultures were pretreated for 1 hr with 100 nM cytochalasin D and then [Ca^2+ ]i in neurons was monitored prior to and following exposure to 50 μM glutamate. The records represent the mean [Ca^2+ ]i in 8-12 neurons. Similar results were obtained in 4 separate experiments.\n(B) Aβ-induced potentiation of [Ca^2+ ]i response to glutamate is abrogated by cytochalasin D. Cultures were left untreated (Control) or were exposed to 20 μM Aβ25-35 for 6 hr or cytochalasin D plus Aβ25-35 for 6 hr. The [Ca^2+ ]i was then monitored prior to following exposure to 50 μM glutamate. Values represent the means of 8-14 neurons. Similar results were obtained in 3 separate experiments.\n(C) Cultures were pretreated for 3 hr with 50 μM Aβ alone or in combination with 100 nM cytochalasin D. The [Ca^2+ ]i in neurons was then monitored prior to and following exposure to 50 mM KCl. Values represent the mean of 14-23 neurons. Similar results were obtained in a separate experiment.\n(D) Cultures were pretreated for 1 h with 100 nM cytochalasin D. The [Ca^2+ ]i in neurons was measured immediately prior to, and at 5 min following, exposure to the indicated concentrations of glutamate. Values represent the means and SEM of determinations made in 17-26 neurons. *P<0.05 (10 μM glutamate), P<0.02 (50 μM glutamate), P<0.01 (100 μAM glutamate) compared to corresponding control values.\nFIG. 9. Cultures were pretreated for 3 h with vehicle (control) or 10 μM jasplakinolide. The [Ca^2+ ]i was monitored prior to and following exposure to 50 μM glutamate. Values represent the mean of determinations made in 10-12 neurons. Similar results were obtained in two additional experiments.\nFIG. 10. […]"}, "[8]": {"test_system": "cultured hippocampal neurons", "experiment": "neurotoxicity of combined exposure to Aβ and glutamate", "format": "cell-based, rat", "settings": "50 μM Aβ plus 20 μM glutamate, 48 h; compared with either insult alone", "excerpt": "Dissociated embryonic rat hippocampal cell cultures were established and maintained. All procedures conformed with the NIH Guide for the Care and Use of Laboratory Animals and were approved by the University of Kentucky Animal Care and Use Committee. Cultures were maintained on a polyethyleneimine-coated substrate in plastic 35-mm dishes or 96 wall plates (for cell survival studies) or glass-bottom 35-mm dishes (for [Ca^2+ ]i imaging studies). The cell density was ^~ 70-100 cells/mm^2. Cells were maintained in Eagle's minimum essential medium supplemented 10% with fetal bovine serum and containing 20 mM sodium pyruvate. […]\nas §2, with “reader.” for “reader. Alamar Blue is a non-fluorescent substrate that, after reduction by cell metabolites, becomes fluorescent.”\nFIG. 13. […] Neuronal survival was assessed 48 h after treatment. […]"}, "[9]": {"test_system": "neuronal [Ca^2+]i in cultured hippocampal neurons", "experiment": "measurement of [Ca^2+]i, fura-2 imaging", "format": "cell-based, rat", "settings": "50 μM glutamate"}}}
{"molecule": "CNc1ccc2oc(C[C@H]3O[C@@]4(CC[C@H]3C)O[C@H]([C@H](C)C(=O)c3ccc[nH]3)[C@H](C)C[C@H]4C)nc2c1C(=O)O", "note": "[A23187]", "values": [{"measurement": "neurons killed", "setting": "[1]; 1 μM", "result": "essentially all neurons being killed"}, {"measurement": "neuronal survival", "setting": "[1]; 100-1000 nM", "result": "concentration-dependent reduction in neuronal survival"}]}
{"molecule": "Cc1c(C)c2c(c(C)c1O)CCC(C)(CCCC(C)CCCC(C)CCCC(C)C)O2", "note": "(stereo not drawn) [Vitamin E, α-tocopherol, reference compound]", "values": [{"measurement": "effect on neurotoxicity of iron", "setting": "[2]", "result": "completely blocked"}, {"measurement": "effect on neurotoxicity of hydrogen peroxide", "setting": "[3]; 50 μg/ml, 1 h pretreatment, 20 h", "result": "largely prevented"}]}
{"molecule": "Aβ1-40: Aβ1-40 (Bachem, lot ZK600), amyloid β-peptide [reference compound]", "values": [{"measurement": "neurotoxicity, preliminary characterization", "setting": "[4]", "result": "progressively killed neurons"}, {"measurement": "aggregation in culture medium", "setting": "[5]", "result": "aggregated rapidly"}]}
{"molecule": "OO", "note": "[Hydrogen peroxide, hydrogen peroxide, reference compound]", "values": [{"measurement": "neuronal survival", "setting": "[3]; 20-h exposure", "result": "concentration-dependent reduction in neuronal survival"}]}
{"molecule": "Aβ25-35: Aβ25-35 (Bachem, lot ZJ744), amyloid β-peptide fragment (GSNKGAIIGLM; Amyloid-beta protein 42; UniProt P05067 696-706, looked up, fragment) [reference compound]", "values": [{"measurement": "Neuron Survival (% of control), Alamar Blue Assay", "setting": "[6]; 50 μM Aβ + 20 μM Glutamate", "result": "24 ± 0.8 % of control"}, {"measurement": "Neuron Survival (% of control), Alamar Blue Assay", "setting": "[6]; 50 μM, alone", "result": "47 ± 3.5 % of control"}, {"measurement": "rest [Ca^2+]i", "setting": "[7]; 3 h", "result": "~ 280 nM"}, {"measurement": "rest [Ca^2+]i", "setting": "[7]; 6 h", "result": "~ 440 nM"}, {"measurement": "neuronal survival in cultures exposed to Aβ25-35", "setting": "[4]; 50 μM, 24 hr", "result": "less than 50 % of control values"}, {"measurement": "neuronal survival upon exposure to Aβ25-35", "setting": "[4]; 24-h incubation", "result": "concentration-dependent reduction in neuronal survival"}, {"measurement": "neurotoxicity, preliminary characterization", "setting": "[4]", "result": "progressively killed neurons"}, {"measurement": "neuronal death on combined exposure to Aβ and glutamate", "setting": "[8]", "result": "significantly more neuronal death"}, {"measurement": "aggregation in culture medium", "setting": "[5]", "result": "aggregated rapidly"}, {"measurement": "[Ca^2+]i reached after glutamate in Aβ-pretreated cultures", "setting": "[9]; Aβ pretreatment 3 h", "result": "> 1,500 nM"}, {"measurement": "[Ca^2+]i reached after glutamate in Aβ-pretreated cultures", "setting": "[9]; Aβ pretreatment 3 hr", "result": "over 1 μM"}]}
